# Source: patent US20170136008A1, “OXABICYCLOHEPTANES AND OXABICYCLOHEPTENES FOR THE TREATMENT OF OVARIAN CANCER” (priority 2014, published 2017)
# How the values were obtained:
# SKOV-3 cells = assay: Cell-cycle analysis (FACS), SKOV-3; assay type: cell-based, human
# Description: For cell-cycle analysis, cells were washed with PBS and fixed overnight in ice-cold 70% ethanol and stored at 4° C. Cells were then centrifuged and resuspended in 100 U RNAse (Sigma-Aldrich), and incubated at 37° C. for 20 min. Propidiumidodide solution (Invitrogen, 500 μL, 50 μg/mL in DPBS) was added to each tube and incubated in the dark at 4° C. overnight. Flow cytometry analysis was performed with CellQuestPro and data analysis was completed with ModFit LT. All data is in triplicate and presented as a percent mean±SD.
# [1] = system: BRCA1, Wee1, Chk1, γH2AX phosphorylation in SKOV-3 tumors; assay: Ex-vivo western blot of intraperitoneal tumors; assay type: in vivo, mouse; details: LB100 alone 1.5 mg/kg, 4 h
# Description: Whole cell and homogenized tumor tissues were lysed in NP-40 lysis buffer [50 mM Tris/HCl, pH 7.4, 150 mM NaCl and 1% Nonidet P40, supplemented with Complete Protrase Inhibitor Cocktail tablets and PhosStop phosphatase inhibitors (Roche, Indianapolis, Ind.)] and prepared as previously described (Madigan, J. P. et al. 2009). Protein (40 μg) was resolved on SDS/PAGE (12% or 15% gels) and transferred onto Immobilon PVDF membrane. The membrane was then blocked for 1 hour at room temperature in 5% (w/v) non-fat milk in TBS-Tween and probed overnight with primary antibodies. […]
# Five- to seven-week-old female nude athymic mice (nu/nu) were obtained from NCI (Frederick, Md.), maintained in accredited animal facilities and used as stipulated by the U.S. Public Health Service Policy on Humane Care and Use of Laboratory Animals, in accordance with institutional reviews (http://oacu.odnih.gov). […] Tumor growth was measured twice a week via bioluminescence imaging (BLI) as previously described (Bakhsheshian, J. et al. 2013). […] Relative intensity of the BLI signal for each mouse was calculated by dividing the total luminescence for each session by the total luminescence measured on day 1 of treatment. […] Toxicity of the treatment regimens was assessed by the degree of weight loss and the overall health status was continuously monitored by a veterinarian on staff. […]
# [2] = system: p-Chk1 (S345) and apoptosis proteins in OVCAR-8 cells; assay: Immunoblotting, OVCAR-8 cells; assay type: cell-based, human; details: after 1 h cisplatin, recovery up to 8 h, vs media alone
# Description: Whole cell and homogenized tumor tissues were lysed in NP-40 lysis buffer [50 mM Tris/HCl, pH 7.4, 150 mM NaCl and 1% Nonidet P40, supplemented with Complete Protrase Inhibitor Cocktail tablets and PhosStop phosphatase inhibitors (Roche, Indianapolis, Ind.)] and prepared as previously described (Madigan, J. P. et al. 2009). Protein (40 μg) was resolved on SDS/PAGE (12% or 15% gels) and transferred onto Immobilon PVDF membrane. The membrane was then blocked for 1 hour at room temperature in 5% (w/v) non-fat milk in TBS-Tween and probed overnight with primary antibodies. After extensive washing, cells were probed with anti-rabbit or anti-mouse IgG-horseradish per oxidase (HRP)-conjugated secondary antibodies (Cell Signaling Technology, Danvers, Mass.) in blocking buffer for 1 h. Membranes were subsequently incubated in Immobilon Western blot Chemiluminescent HRP Substrate (Millipore) and developed on biomax XAR film (Kodak). Antibodies were purchased from Cell Signaling Technology: γH2AX (Ser139), p-Wee1 (Ser 642), Wee1, p-cdc2 (Tyr15), p-BRCA1 (Ser1524), p-Chk1 (Ser345), p-Chk1 (Ser317), Chk-1, phospho-Chk2 (Thr68), PP2Ac, cleaved caspase-3 (Asp175), cleaved PARP (Asp214), p-histone H3 (Ser10), p-ATR (Ser428), and p-(Ser)14-3-3 binding motif. […]
# PP2A = target: T1, PP2A (Homo sapiens, UniProt P67775); assay: PP2A phosphatase activity assay; assay type: cell-based; details: cell lysate from SKOV-3 cells, 2 h treatment
# T1 construct: endogenous in cells; host or cells: SKOV-3 ovarian cancer cells (lysate supernatant, assayed with the Millipore PP2A Phosphatase Assay Kit)
# T1 sequence (P67775 whole entry): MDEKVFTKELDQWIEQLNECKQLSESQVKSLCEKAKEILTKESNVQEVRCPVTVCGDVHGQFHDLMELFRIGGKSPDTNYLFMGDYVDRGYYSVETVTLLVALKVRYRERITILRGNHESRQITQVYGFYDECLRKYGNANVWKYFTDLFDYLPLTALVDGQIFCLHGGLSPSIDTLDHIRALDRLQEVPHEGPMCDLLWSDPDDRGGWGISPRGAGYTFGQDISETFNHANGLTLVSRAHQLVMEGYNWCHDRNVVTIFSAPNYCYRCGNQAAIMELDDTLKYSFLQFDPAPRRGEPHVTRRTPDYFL
# T1 sequence (P30153 2-589 partner limits assumed): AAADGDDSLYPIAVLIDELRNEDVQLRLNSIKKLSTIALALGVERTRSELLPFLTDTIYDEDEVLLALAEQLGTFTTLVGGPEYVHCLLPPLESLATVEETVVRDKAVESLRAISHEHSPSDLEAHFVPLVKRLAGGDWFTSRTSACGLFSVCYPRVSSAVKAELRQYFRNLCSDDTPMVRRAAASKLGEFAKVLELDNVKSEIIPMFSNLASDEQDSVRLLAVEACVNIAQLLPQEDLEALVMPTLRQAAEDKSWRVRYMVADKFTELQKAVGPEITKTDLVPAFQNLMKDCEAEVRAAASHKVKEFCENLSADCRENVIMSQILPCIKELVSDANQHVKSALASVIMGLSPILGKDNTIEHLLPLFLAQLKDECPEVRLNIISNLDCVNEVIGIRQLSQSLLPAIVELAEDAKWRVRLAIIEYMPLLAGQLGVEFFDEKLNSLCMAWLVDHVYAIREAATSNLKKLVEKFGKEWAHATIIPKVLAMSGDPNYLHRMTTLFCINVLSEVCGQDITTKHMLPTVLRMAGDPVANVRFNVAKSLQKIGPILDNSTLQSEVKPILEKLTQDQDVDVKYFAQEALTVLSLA
# Description: Ovarian cancer cells were grown to 80% confluence in 100 mm dishes and treated with LB100 as indicated and prepared as described previously (Wei, D. et al. 2013). Following treatment for 2 h, cells were washed twice with cold PBS (pH7.4) and lysed in lysis buffer (20 mmol/L imidazole-HCL, 2 mmol/L EDTA, 2 mmol/L EGTA, pH 7.0) supplemented with protease inhibitors (Roche) for 30 minutes on ice. Cell lysates were sonicated for 10 s then centrifuged at 2,000×g for 5 min. Supernatants were assayed with the PP2A Phosphatase Assay Kit (Millipore, Billerica, Mass.) according to the manufacturer's instructions. Experiments were performed in triplicate, and the data are presented as a percent mean of relative PP2A activity compared to control ±SD.
smiles,measurement,setting,value
CN1CCN(C(=O)C2C(C(=O)O)[C@H]3CC[C@@H]2O3)CC1 (stereo partly drawn) [LB100],G1 (%),"SKOV-3 cells; 24 h, LB100 5 μM",51.4 ± 1.5%
same,G2/M (%),"SKOV-3 cells; 24 h, LB100 5 μM",28.9 ± 1.2%
same,S (%),"SKOV-3 cells; 24 h, LB100 5 μM",19.7 ± 0.8%
same,G1 (%),"SKOV-3 cells; 48 h, LB100 2 μM",49.8 ± 0.5%
same,G2/M (%),"SKOV-3 cells; 48 h, LB100 2 μM",25.1±0.8%
same,S (%),"SKOV-3 cells; 48 h, LB100 2 μM",25.1 ± 0.3%
same,G1 (%),"SKOV-3 cells; 48 h, LB100 5 μM",47.2 ± 1.9%
same,G2/M (%),"SKOV-3 cells; 48 h, LB100 5 μM",25.1 ± 0.8%
same,S (%),"SKOV-3 cells; 48 h, LB100 5 μM",30.2 ± 3.1%
same,G1 (%),"SKOV-3 cells; 48 h, LB100 10 μM",36.8 ± 1.8%
same,G2/M (%),"SKOV-3 cells; 48 h, LB100 10 μM",32.1±1.6%
same,S (%),"SKOV-3 cells; 48 h, LB100 10 μM",31.1 ± 0.8%
same,G1 (%),"SKOV-3 cells; 48 h, LB100 15 μM",42.3 ± 1.6%
same,G2/M (%),"SKOV-3 cells; 48 h, LB100 15 μM",33.9±1.4%
same,S (%),"SKOV-3 cells; 48 h, LB100 15 μM",23.8 ± 0.2%
same,"phosphorylation of BRCA1, Wee1, Chk1, γH2AX",[1],induced hyperphosphorylation
same,phosphorylation of Chk1 at S345,[2],significantly increased
same,PP2A enzymatic function,PP2A,concentration-dependent decrease
